Test results reported in paper PMC3089437 (2011).

Target: mouse CB2 (mCB2) (Mus musculus, UniProt P47936)
Assay type: binding

Sequence of mouse CB2 (mCB2) (P47936 whole entry): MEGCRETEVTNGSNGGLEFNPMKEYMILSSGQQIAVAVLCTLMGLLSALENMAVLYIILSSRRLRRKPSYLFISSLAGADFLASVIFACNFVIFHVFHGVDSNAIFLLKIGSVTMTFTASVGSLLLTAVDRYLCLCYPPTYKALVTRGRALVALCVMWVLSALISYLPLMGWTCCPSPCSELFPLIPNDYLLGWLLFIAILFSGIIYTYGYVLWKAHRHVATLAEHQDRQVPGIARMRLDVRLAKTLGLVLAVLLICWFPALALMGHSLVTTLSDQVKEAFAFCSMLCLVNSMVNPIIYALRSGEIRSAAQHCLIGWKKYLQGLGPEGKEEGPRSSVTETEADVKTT

SMILES: CCCCCCC(C)(C)c1cc(O)c2c(c1)oc(=O)c1ccc(OC)cc12 [AM1710, 3-(1′,1′-dimethylheptyl)-1-hydroxy-9-methoxy-6H-benzo[c]chromene-6-one]
- Ki: 0.017 µM
